Experiment [1] has as its system ALDH+ cancer stem cells (CSC) in MOLM-14 cell line. As to the kind of experiment: Aldefluor kit assay, ALDH+ compartment analysis. It counts as cell-based, human. The settings on record: for Aldefluor™ positive CSCs (% of control): 72 h; for Aldefluor positive CSCs (% of control): MOLM-14 cell line, 72 h incubation. An excerpt:
Analysis of the of aldehyde dehydrogenase (ALDH) compartment and high activity level of aldehyde dehydrogenase activity (ALDH+) was used to detect tumor initiating cells (cancer stem cells, CSC) population. The Aldefluor™ kit assay (StemCell Technologies) allowed to assess the activity of drugs on CSC cells like in aa MOLM-14 acute myeloid leukemia cell line population. The Aldefluor™ kit assay was used according to the procedure described by the manufacturer. Briefly, MOLM-14 cell line was cultured in RPMI-1640 Medium supplemented with 10% v/v Fetal Bovine Serum (FBS), 1% Penicillin-Streptomycin and maintained at 37° C. with 5% CO2. 5·10^5 cells were used in this assay. Each compound was added at different concentrations (see table 13 and 14), and cell cultures were incubated for 72 h. Vehicle (H2O) was used as a control, and all compounds were tested in a constant percentage of vehicle. Cells obtained from cell culture were incubated for 45 minutes at 37° C. with Aldefluor™ buffer assay containing the Bodipy™-aminoacetaldehyde (BAAA), a fluorescent ALDH aldehyde substrate. ALDH converts the fluorescent substrate BAAA to the Bodipy™-aminoacetic acid (BAA) which is retained in the cell. An active efflux inhibitor is present in the Adelfluor™ assay buffer in order to avoid the active efflux from the cell of the substrate product ALDH dependent converted BAA. The fluorescent signal is directly proportional to the ALDH activity in the cells and is measured by flow cytometry. A negative control is used to measure the background fluorescence level. For such purpose, 4-(N,N-diethylamino)-benzaldehyde (DEAB) was used as selective ALDH inhibitor. A viability cell count was performed using LIVE/DEAD® Fixable Far Red Dead Cell Stain Kit (Invitrogen). The experimental data are analyzed using a computer program, Graphpad Prism (GraphPad Software, Inc. La Jolla, Calif.) and EC50 values were determined as the dose of compound required to reduce absorbance values to 50% of the signal obtained for vehicle treated cell cultures.

The next experiment deals with HL60. Briefly: CellTiter-Glo cell viability assay (example 57). Type of experiment: cell-based. To be noted: Homo sapiens, HL-60; HL60 (Leukemia); Cell Titer-Glo; 72 h. As to the method:
(§1) The human breast cancer cell line SkBr3 and the human metastatic prostate carcinoma cell line LnCAP were cultured in Dulbecco's modified Eagle's medium (DMEM) supplemented with 10% fetal bovine serum (FBS) and 0.1% sodium pyruvate. The human myelocytic cell line U937 and NB4 were maintained in RPMI medium 1640 1× (Gibco 21875-034) supplemented with 10 % Fetal Bovine Serum (FBS, Eurobio S39130-0808) Kasumi and SKM-1 were maintained in RPMI medium 1640 1× (Gibco 21875-034) supplemented with 20 % Fetal Bovine Serum (FBS, Eurobio S39130-0808), HL60 was maintained in Iscove's modified Dulbecco's medium 1× (IMDM, Gibco 21890) supplemented with 20% Fetal Bovine Serum (FBS, Eurobio S39130-0808), cell line was maintained in MEM alpha medium (Gibco 22561-021) supplemented with 10% FBS at 37° C. with 5% CO2. Cell outgrowth was measured using the CellTiter-Glo luminescent cell viability assay as described by the manufacturer (Promega, Ref G7571 Madison, Wis., USA) using a FLUOstar optima luminometer (BMG Labtech, Ortenberg, Germany).
(§2) Briefly, for adherent cells, 10^4 cells were plated onto 96-well plates (white with clear bottom (3610, Corning Costar) in 100 μL of media per well and were allowed to grow overnight before the assay. For cells growing in suspension, 10^4 cells were plated onto 96-well plates immediately before the assay. […] Vehicle (DMSO) was used as a control, and all compounds were tested in a constant percentage of DMSO (1%). After addition of 50 μL of CellTiter GLO, luminescence was measured using a Centro luminometer (Berthold). EC50 values were determined as the dose of compound required to reduce luminescent values to 50% of the signal obtained for untreated cell cultures. All experiments were done in duplicate and repeated two independent times.
In general terms: In ATP-based viability assays light output follows the ATP content of the culture.

Another experiment concerns SKM-1. Briefly: CellTiter-Glo cell viability assay (example 57). It counts as cell-based. The settings on record: Homo sapiens; SKM-1 (Leukemia); Cell Titer-Glo; 72 h. As to the method: as §1, §2
A further experiment has as its system MOLM-14. Briefly: CellTiter-Glo cell viability assay (example 57). Type of experiment: cell-based. The settings on record: Homo sapiens; MOLM-14 (Leukemia); Cell Titer-Glo; 72 h. As to the method:
as §1, §2

The subject of another experiment is U937. Briefly: CellTiter-Glo cell viability assay (example 57). It counts as cell-based. To be noted: Homo sapiens, U-937; U937 (Leukemia); Cell Titer-Glo; 72 h. As to the method:
as §1, §2

The next experiment has as its system NB4. As to the kind of experiment: CellTiter-Glo cell viability assay (example 57). To be noted: Homo sapiens, NB-4; NB4 (Leukemia); Cell Titer-Glo; 72 h. Type of experiment: cell-based. As to the method: as §1, §2
The next experiment has as its system Kasumi-1. As to the kind of experiment: CellTiter-Glo cell viability assay (example 57). It counts as cell-based. To be noted: Homo sapiens; Kasumi-1 (Leukemia); Cell Titer-Glo; 72 h. As to the method:
as §1, §2

The next experiment concerns KG-1. Briefly: CellTiter-Glo cell viability assay (example 57). It counts as cell-based. The settings on record: Homo sapiens; KG-1 (Leukemia); Cell Titer-Glo; 72 h. As to the method:
as §1, §2

A further experiment relates to MOLM-14 cell line. Briefly: Growth inhibition assay of MOLM-14 (CellTiter-Glo, example 63). The settings on record: Homo sapiens, 48 h, method of example 63. Type of experiment: cell-based. As to the method:
MOLM-14 cell line was cultured in RPMI-1640 Medium supplemented with 10% v/v Fetal Bovine Serum (FBS), 1% Penicillin-Streptomycin and maintained at 37° C. with 5% CO2. 10,000 cells were plated onto 96-well plates immediately before the assay.
Each compound was added at different concentrations (combinations of six concentrations) to each well, and cell cultures were incubated for 48 h. Vehicle (H2O) was used as a control, and all compounds were tested in a constant percentage of vehicle. Cell outgrowth was measured using the CellTiter-Glo luminescent cell viability assay as described by the manufacturer (Promega, Ref G7571 Madison, Wis., USA) using a Centro (Berthold, France) plate reader.
In each experiment, each point represents the average of triplicates in cell culture.
The experimental data are analyzed using a computer program, Graphpad Prism (GraphPad Software, Inc. La Jolla, Calif.) and EC50 values were determined as the dose of compound required to reduce absorbance values to 50% of the signal obtained for vehicle treated cell cultures.

Another experiment deals with Capan-2. Briefly: Cell viability assay, pancreatic cancer cell lines. Type of experiment: cell-based. The settings on record: Homo sapiens; Capan-2 (Pancreas); 48 h. As to the method: (§3) MiaPaCa-2, Panc-1 cells were grown in Dulbecco's modified eagle's medium (DMEM) (Gibco) supplemented with 10% fetal bovine serum (FBS), while BxPC-3, Capan-1, Capan-2 cells were grown in Roswell Park Memorial Institute 1640 (RPMI 1640) (Gibco) supplemented with 10% FBS. Gemcitabine (Gemzar) was purchased from Lilly France S.A.S (Suresnes, France). (3-(4,5-dimethylthiazol-2-yl)-2,5diphenyltetrazolium bromide, MTT) was purchased from Sigma-Aldrich.
(§4) BxPC-3, MiaPaCa-2, Panc-1 cells were seeded into a 96-well plate at 10,000 10,000 15,000 cells per well respectively, while Capan-1 and Capan-2 cells at 20,000 cells per well and allowed to adhere overnight. Then the culture medium was removed and replaced with fresh media alone as control or containing various concentrations of different compounds. In dose-dependent assay, the cells were treated with compound XIX-3 at the concentration varying from 0.1 μM to 100 μM while the cells being cultured by fresh media alone were used as control. After 48 h treatment, the number of remained viable cells was determined by (3-(4,5-dimethylthiazol-2-yl)-2,5diphenyltetrazolium bromide, MTT) colorimetric assay (see Sigma Aldrich protocol and Riss T. L. et al. Cell Viability Assays in Assay Guidance Manual 2013 ppl.). All experiments were done in duplicate and repeated two independent times.

A further experiment deals with Panc-1. Briefly: Cell viability assay, pancreatic cancer cell lines. To be noted: Homo sapiens; Panc-1 (Pancreas); 48 h. It counts as cell-based. As to the method:
as §3, §4

The test system of another experiment is MIA PaCa-2. Briefly: Cell viability assay, pancreatic cancer cell lines. The settings on record: Homo sapiens; MIA PaCa-2 (Pancreas); 48 h. Type of experiment: cell-based. As to the method:
as §3, §4

The test system of another experiment is Capan-1. As to the kind of experiment: Cell viability assay, pancreatic cancer cell lines. Type of experiment: cell-based. The settings on record: Homo sapiens; Capan-1 (Pancreas); 48 h. As to the method: as §3, §4
The test system of another experiment is BxPC-3. As to the kind of experiment: Cell viability assay, pancreatic cancer cell lines. It counts as cell-based. The settings on record: Homo sapiens; BxPC-3 (Pancreas); 48 h. As to the method: as §3, §4
The subject of another experiment is HepG2. Briefly: CellTiter-Glo cell viability assay (example 57). Type of experiment: cell-based. The settings on record: Homo sapiens; HepG2 (Liver); Cell Titer-Glo; 72 h. As to the method: as §1, §2
Another experiment deals with SkBr3. Briefly: CellTiter-Glo cell viability assay (example 57). To be noted: Homo sapiens, SK-BR-3; SkBr3 (Breast); Cell Titer-Glo; 72 h. Type of experiment: cell-based. As to the method: as §1, §2
The next experiment relates to LNCaP. Briefly: CellTiter-Glo cell viability assay (example 57). Type of experiment: cell-based. To be noted: Homo sapiens; LNCaP (Prostate); Cell Titer-Glo; 72 h. As to the method: as §1, §2
The next experiment relates to HT29. Briefly: CellTiter-Glo cell viability assay (example 57). It counts as cell-based. The settings on record: Homo sapiens, HT-29; HT29 (Colon); Cell Titer-Glo; 72 h.
Another experiment has as its system B16F10. As to the kind of experiment: CellTiter-Glo cell viability assay (example 57). Type of experiment: cell-based, human. To be noted: Mus musculus, B16-F10; B16F10 (Melanoma); Cell Titer-Glo; 72 h.
For the next experiment, the system named is U87-MG. Briefly: CellTiter 96 Aqueous One Solution (MTS) cell proliferation assay. Type of experiment: cell-based. The settings on record: Homo sapiens, U-87 MG; U87-MG (Glioma); Cell Titer 96 Aqueous One Solution; 72 h; mean of seven independent triplicate assays. As to the method: The human glioblastoma cell line U87-MG was cultured in Minimum Essential Medium (Life Invitrogen, 31095029) supplemented with 10% fetal bovine serum (GIBCO, 10500-056) and 1 % penicillin-streptomycin (GIBCO, 15140-122). Flasks and plated used for the cell culture were coated with 25 μg/mL poly-D-lysine (Sigma, P7280).
Cell outgrowth was measured using a tetrazolium compound (3-[4,5-dimethylthiazol-2-yl]-5-[3-carboxymethoxyphenyl]-2-[4-sulfophenyl]-2H tetrazolium, inner salt [MTS]) from the CellTiter 96® Aqueous One Solution Cell Proliferation Assay (Promega, Ref G3580) and according to the manufacturer procedure.
5000 cells were plated onto 96-well plates in 100 μL of media per well and were allowed to grow overnight before the assay. Compounds were added at different concentrations to each well, and cell cultures were incubated for 72 h. Control compound was the diluent used for compound resuspension (H2O). After addition of 20 μL of CellTiter 96® Aqueous One Solution, absorbance at 492 nm was measured using a microplate reader Sunrise (Tecan). EC50 values were determined as the dose of compound required to reduce […] values to 50% of the signal obtained for untreated cell cultures. […] The experimental data are analyzed using a computer program, Graphpad Prism (GraphPad Software, Inc. La Jolla, Calif.).

As to `Nc1ccn([C@@H]2O[C@H](CO)[C@@H](O)[C@@H]2O)c(=O)n1` [Cytarabine], the “Aldefluor™ positive CSCs (% of control)” value is given as 130 % of control in [1] (MOLM-14, 1 μM) and 116 % of control in experiment [1] (MOLM-14, 3 μM). Also, the “Activity against CSCs in Aldefluor™ assay (proportion of CSCs)” value in [1] (MOLM-14, dose dependent, Cytarabine up to 3-fold its EC50) was “not active against CSCs”. Further, the “Aldefluor positive CSCs (% of control)” value in [1] (1 μM) is reported as 130 % of control; in experiment [1] (3 μM) it was 116 % of control. The EC50 with HL60 was found to be 2 µM; with SKM-1, 2 µM; in the experiment on MOLM-14, 3 µM; in the experiment with U937, 0.03 µM; in the experiment on NB4, 0.02 µM; in the experiment with Kasumi-1, 0.15 µM. The results for the EC50 in the experiment with KG-1 and in the experiment with MOLM-14 cell line were 0.15 µM and 1 µM, respectively.

In the case of `CCN(CCO)CCCC(C)Nc1ccnc2cc(Cl)ccc12` (stereo not shown) [HCQ, hydroxychloroquine], the half-maximal effective concentration (EC50) worked out at 47 µM in the experiment on Capan-2; 57 µM in the experiment on Panc-1; 47 µM with MIA PaCa-2; 41 µM with Capan-1; 53 µM in the experiment with BxPC-3; 40 µM in the experiment on HL60. Also, the EC50 turned out to be 70 µM in the experiment with SKM-1; 20 µM in the experiment on HepG2; 20 µM in the experiment with SkBr3; 50 µM with MOLM-14; 25 µM in the experiment on LNCaP; 60 µM in the experiment with U937. For the same molecule, the EC50 in the experiment with NB4 turned out to be 57 µM; with Kasumi-1 it was 20 µM; with KG-1, 60 µM; in the experiment with HT29 it was 20 µM; in the experiment with B16F10 it was 20 µM; in the experiment with U87-MG, 55 µM.

Usually EC50 stands for the midpoint of the concentration-response curve.

Source of the values: US10179770B2, “Quinolines derivatives as novel anticancer agents” (GENOSCIENCE PHARMA, priority 2013, dated 2019).
